Experimental findings from ChEMBL document CHEMBL1122363, “Synthesis and some pharmacological properties of oxytocin and vasopressin analogues with sarcosine or N-methyl-L-alanine in position 7” (1983) are described below.

The species entered for experiment [1] is Rattus norvegicus. The experiment is described as follows: Tested for antidiuretic activity in rat. The class given is functional, Urine. Also on record: unit not given here.
Experiment [2] is filed under the species Rattus norvegicus. The experiment can be described thus: The compound was tested for milk ejection activity in rat. Also on record: unit not given here. The class given is functional.
The species named for experiment [3] is Rattus norvegicus. The experiment can be described thus: Uterotonic activity in vitro in isolated rat uterus in absence of magnesium. The class given is functional. The arrangement: unit not given here.
The nature of experiment [4]: Tested for the ratio of uterotonic potency to antidiuretic potency(O/A). Type of experiment: functional, Urine.
For experiment [5], the species on record is Rattus norvegicus. The experiment can be described thus: Uterotonic activity in vitro in isolated rat uterus in presence of magnesium. The class given is functional.
The species named for experiment [6] is Rattus norvegicus. The experiment is described as follows: Tested for vasopressor activity in rat. The class given is functional. Also on record: unit not given here.
Experiment [7] is filed under the species Rattus norvegicus. The experiment can be described thus: Tested for vasopressor activity in rat; N-None. Type of experiment: functional, organism-based.
The species entered for experiment [8] is Rattus norvegicus. The experiment can be described thus: Tested for vasopressor activity in rat;N-None. Type of experiment: functional, organism-based.
Experiment [9] is described as follows: Tested for the ratio of uterotonic potency to pressor potency(O/P). The class given is functional.
Experiment [10] can be described thus: Tested for the ratio of antidiuretic potency to uterotonic potency(A/P). The class given is functional.
Experiment [11] in a line: Tested for the ratio of antidiuretic potency to uterotonic potency(A/O). The class given is functional, Urine.

The source made the active and inactive calls. The calls are words filed in the database; no cut-off is given here. Positions of bridges follow the written chain, without caps; N, C: chain ends. Non-standard residues stand in square brackets, D forms with d. Residues, ends and D or L forms follow the SMILES beside them. NMeA = CN[C@@H](C)C(=O)O; Mpa = O=C(O)CCS; Sar = CNCC(=O)O

Take `CC[C@H](C)[C@@H]1NC(=O)[C@H](Cc2ccc(O)cc2)NC(=O)[C@@H](N)CSSC[C@@H](C(=O)N(C)[C@@H](C)C(=O)N[C@@H](CC(C)C)C(=O)NCC(N)=O)NC(=O)[C@H](CC(N)=O)NC(=O)[C@H](CCC(N)=O)NC1=O`: the Activity is 0.12 in experiment [1], 402 in experiment [2], 62 in [3] and 184 IU/mg in experiment [5]. In addition, the Ratio in experiment [4] is reported as 620.
Take `CC[C@H](C)[C@@H]1NC(=O)[C@H](Cc2ccc(O)cc2)NC(=O)[C@@H](N)CSSC[C@@H](C(=O)N[C@@H](C)C(=O)N[C@@H](CC(C)C)C(=O)NCC(N)=O)NC(=O)[C@H](CC(N)=O)NC(=O)[C@H](CCC(N)=O)NC1=O`: the Activity in experiment [1] is given as 0.08; in experiment [3], 22; in experiment [6], 0.4. The Ratio in [4] came out at 275.
Regarding `CC[C@H](C)[C@@H]1NC(=O)[C@H](Cc2ccc(O)cc2)NC(=O)[C@@H](N)CSSC[C@@H](C(=O)NCC(=O)N[C@@H](CC(C)C)C(=O)NCC(N)=O)NC(=O)[C@H](CC(N)=O)NC(=O)[C@H](CCC(N)=O)NC1=O`, the Activity in experiment [1] was found to be 0.0056; in [2], 392; in [3], 93; in experiment [6] it was 0.01. Also, the Ratio in [4] was found to be 16600.
For the compound `CC[C@H](C)[C@@H]1NC(=O)[C@H](Cc2ccc(O)cc2)NC(=O)CCSSC[C@@H](C(=O)N(C)CC(=O)N[C@@H](CC(C)C)C(=O)NCC(N)=O)NC(=O)[C@H](CC(N)=O)NC(=O)[C@H](CCC(N)=O)NC1=O`, the Activity in experiment [2] stood at 498; in experiment [3], 745; in experiment [5], 1350 IU/mg.
As to `CC[C@H](C)[C@@H]1NC(=O)[C@@H](Cc2ccc(O)cc2)NC(=O)CCSSC[C@@H](C(=O)N(C)CC(=O)N[C@@H](CC(C)C)C(=O)NCC(N)=O)NC(=O)[C@H](CC(N)=O)NC(=O)[C@@H](CCC(N)=O)NC1=O`, in experiment [7], the outcome was inactive.
In the case of `CC[C@H](C)[C@@H]1NC(=O)[C@@H](Cc2ccc(O)cc2)NC(=O)[C@H](N)CSSC[C@@H](C(=O)N(C)[C@@H](C)C(=O)N[C@@H](CC(C)C)C(=O)NCC(N)=O)NC(=O)[C@H](CC(N)=O)NC(=O)[C@@H](CCC(N)=O)NC1=O`, the result in experiment [8] was inactive.
On to `CC[C@H](C)[C@@H]1NC(=O)[C@@H](Cc2ccc(O)cc2)NC(=O)[C@H](N)CSSC[C@@H](C(=O)NCC(=O)N[C@@H](CC(C)C)C(=O)NCC(N)=O)NC(=O)[C@H](CC(N)=O)NC(=O)[C@@H](CCC(N)=O)NC1=O`, for which, in [9], the Ratio stood at 9300.
For the compound `CC[C@H](C)[C@@H]1NC(=O)[C@@H](Cc2ccc(O)cc2)NC(=O)[C@H](N)CSSC[C@@H](C(=O)N[C@@H](C)C(=O)N[C@@H](CC(C)C)C(=O)NCC(N)=O)NC(=O)[C@H](CC(N)=O)NC(=O)[C@@H](CCC(N)=O)NC1=O`, the Ratio in experiment [9] was 55.
On to `CC[C@H](C)[C@@H]1NC(=O)[C@H](Cc2ccc(O)cc2)NC(=O)CCSSC[C@H](C(=O)N2CCC[C@H]2C(=O)N[C@@H](CC(C)C)C(=O)NCC(N)=O)NC(=O)[C@H](CC(N)=O)NC(=O)[C@H](CCC(N)=O)NC1=O`, for which the Ratio in experiment [9] amounted to 120.
Regarding `NC(=O)CC[C@@H]1NC(=O)[C@H](Cc2ccccc2)NC(=O)[C@H](Cc2ccc(O)cc2)NC(=O)[C@@H](N)CSSC[C@@H](C(=O)NCC(=O)N[C@@H](CCCN=C(N)N)C(=O)NCC(N)=O)NC(=O)[C@H](CC(N)=O)NC1=O` (H-CYFQNCGRG-NH2; disulfide 1-6), the Activity in [2] stood at 0.1; in [5], 0.01 IU/mg.
`C[C@@H](C(=O)N[C@@H](CCCN=C(N)N)C(=O)NCC(N)=O)N(C)C(=O)[C@@H]1CSSC[C@H](N)C(=O)N[C@@H](Cc2ccc(O)cc2)C(=O)N[C@@H](Cc2ccccc2)C(=O)N[C@@H](CCC(N)=O)C(=O)N[C@@H](CC(N)=O)C(=O)N1` (H-CYFQNC[NMeA]RG-NH2; disulfide 1-6): the Ratio is 32 in [10] and 122 in experiment [11]. Also, the Activity in experiment [1] amounted to 35; in experiment [2], 2.8; in experiment [3], 343; in [6], 4.1; in experiment [5] it was 10.6 IU/mg.
Turning to `CN(CC(=O)N[C@@H](CCCN=C(N)N)C(=O)NCC(N)=O)C(=O)[C@@H]1CSSC[C@H](N)C(=O)N[C@@H](Cc2ccc(O)cc2)C(=O)N[C@@H](Cc2ccccc2)C(=O)N[C@@H](CCC(N)=O)C(=O)N[C@@H](CC(N)=O)C(=O)N1` (H-CYFQNC[Sar]RG-NH2; disulfide 1-6), the values for the Ratio in experiment [10] and in experiment [11] were 52 and 20, respectively. Besides, the Activity is 110 in [1]; 9.3 in experiment [2]; 188 in [3]; 36 in [6]; 3.6 IU/mg in [5].
`CC[C@H](C)[C@@H]1NC(=O)[C@H](Cc2ccc(O)cc2)NC(=O)[C@@H](N)CSSC[C@@H](C(=O)N(C)CC(=O)N[C@@H](CC(C)C)C(=O)NCC(N)=O)NC(=O)[C@H](CC(N)=O)NC(=O)[C@H](CCC(N)=O)NC1=O` (H-CYIQNC[Sar]LG-NH2; disulfide 1-6): the Activity in experiment [1] was 0.18; in experiment [2] it was 564; in [3] it was 459; in experiment [5], 609 IU/mg. Also, the Ratio in experiment [4] was determined as 2550.
For `C[C@@H](C(=O)N[C@@H](CCCN=C(N)N)C(=O)NCC(N)=O)N(C)C(=O)[C@@H]1CSSCCC(=O)N[C@@H](Cc2ccc(O)cc2)C(=O)N[C@@H](Cc2ccccc2)C(=O)N[C@@H](CCC(N)=O)C(=O)N[C@@H](CC(N)=O)C(=O)N1` ([Mpa]YFQNC[NMeA]RG-NH2; disulfide 1-6), the values for the Ratio in [10] and in [11] were 102 and 78, respectively. Moreover, the Activity in experiment [1] was 35; in experiment [2], 1.7; in [3] it was 113; in experiment [6] it was 8; in experiment [5], 1.3 IU/mg.
As for `CN(CC(=O)N[C@@H](CCCN=C(N)N)C(=O)NCC(N)=O)C(=O)[C@@H]1CSSCCC(=O)N[C@@H](Cc2ccc(O)cc2)C(=O)N[C@@H](Cc2ccccc2)C(=O)N[C@@H](CCC(N)=O)C(=O)N[C@@H](CC(N)=O)C(=O)N1` ([Mpa]YFQNC[Sar]RG-NH2; disulfide 1-6), the Ratio in [10] came to 690; in experiment [11], 15. Also, the Activity was found to be 193 in experiment [1]; 38.2 in experiment [2]; 580 in experiment [3]; 49 in experiment [6]; 0.84 IU/mg in [5].
As for `CC[C@H](C)[C@@H]1NC(=O)[C@H](Cc2ccc(O)cc2)NC(=O)CCSSC[C@@H](C(=O)N(C)[C@@H](C)C(=O)N[C@@H](CC(C)C)C(=O)NCC(N)=O)NC(=O)[C@H](CC(N)=O)NC(=O)[C@H](CCC(N)=O)NC1=O` ([Mpa]YIQNC[NMeA]LG-NH2; disulfide 1-6), the Activity in [2] was 157; in experiment [3], 98; in experiment [5] it was 274 IU/mg.
On to `CC[C@H](C)[C@@H]1NC(=O)[C@H](Cc2ccc(O)cc2)NC(=O)CCSSC[C@@H](C(=O)N2CCC[C@H]2C(=O)N[C@@H](CC(C)C)C(=O)NCC(N)=O)NC(=O)[C@H](CC(N)=O)NC(=O)[C@H](CCC(N)=O)NC1=O` [DEMOXYTOCIN], for which the Ratio in experiment [4] amounted to 130.
As for `N=C(N)NCCC[C@H](NC(=O)[C@@H]1CCCN1C(=O)[C@@H]1CSSCCC(=O)N[C@@H](Cc2ccc(O)cc2)C(=O)N[C@@H](Cc2ccccc2)C(=O)N[C@@H](CCC(N)=O)C(=O)N[C@@H](CC(N)=O)C(=O)N1)C(=O)NCC(N)=O` [DESMOPRESSIN], the figures for the Ratio in experiment [10] and in experiment [11] were 5 and 60, respectively. Also, the Activity in experiment [5] turned out to be 346 IU/mg.
On to `CC[C@H](C)[C@@H]1NC(=O)[C@H](Cc2ccc(O)cc2)NC(=O)[C@@H](N)CSSC[C@@H](C(=O)N2CCC[C@H]2C(=O)N[C@@H](CC(C)C)C(=O)NCC(N)=O)NC(=O)[C@H](CC(N)=O)NC(=O)[C@H](CCC(N)=O)NC1=O` [OXYTOCIN], for which the Ratio in [9] is 120. Besides, the Activity in experiment [5] turned out to be 486 IU/mg.
